Data taken from paper PMC4153677, “Probing the Activity Modification Space of the Cysteine Peptidase Cathepsin K with Novel Allosteric Modifiers” (PLoS ONE, 2014).
Like-named read-outs stand apart in the source and are kept apart here.

What was measured:
[1] = biological target: T1, Recombinant human cathepsin K (Homo sapiens, UniProt P43235); test: Azocasein degradation assays; assay type: biochemical; conditions: for azocasein: fraction of residual enzyme activity: value of 1 equals the activity of unmodified enzyme, activity modification matrix; for remaining activity: pH 5.5, substrate azocasein 3 mg/ml, 0.1 µM cathepsin K, 30 min 37°C, pH 5.50, compounds up to 2 mM (compound 2: 1 mM), read-out: Residual activity
T1 construct: made in house
T1 sequence (P43235 115-329): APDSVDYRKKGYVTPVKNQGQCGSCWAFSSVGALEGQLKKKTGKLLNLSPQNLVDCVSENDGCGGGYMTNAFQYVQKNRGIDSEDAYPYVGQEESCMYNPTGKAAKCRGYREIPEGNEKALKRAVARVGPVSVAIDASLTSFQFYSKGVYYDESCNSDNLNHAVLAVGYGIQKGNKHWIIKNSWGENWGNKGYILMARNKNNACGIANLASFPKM
Description: Figure 4 Effect of modifiers on the degradation of macromolecular substrates. (A) Effect of increasing concentrations of compounds 1 and 2 on the degradation of calf skin collagen. Molecular mass standards are given in kDa and positions of α, β and γ chains of intact collagen are marked by arrows. (B) Effect of modifiers on azocasein degradation. (C) Effect of glycosaminoglycans and clusterin on azocasein degradation. Two different concentrations of each glycosaminoglycan were used in the experiments (10 µg/ml and 200 µg/ml). Error bars in panels B and C represent the SEM of three experiments. All experiments were performed in 100 mM sodium acetate buffer pH 5.50 containing 1 mM EDTA and 5 mM DTT, as described in detail in the Materials and Methods section. Abbreviations: CPD – compound, CS – chondroitin sulfate, DS – dermatan sulfate, HP – heparin.
Azocasein (Sigma-Aldrich, USA) was dissolved in 100 mM sodium acetate buffer pH 5.50 containing 1 mM EDTA and 5 mM DTT at a concentration of 3 mg/ml. Samples were incubated with 0.1 µM cathepsin K for 30 min at 37°C in the presence of each compound. […] Reactions were stopped by addition of trichloroacetic acid (final concentration 5% v/v), centrifuged, clear supernatants mixed with 0.5 M NaOH and the concentrations of solubilized peptides determined by measuring the absorbance at 440 nm. All experiments were performed in triplicates and appropriate blanks were run to take into account the absorption of azocasein and compounds alone. IC 50 values were determined as described previously.

[2] = biological target: T1, Recombinant human cathepsin K; conditions: cited from earlier work; for Z-FRAMC: geometric mean of residual activities (vA): at 0.1×Km and 10×Km substrate, modifier 10×KA, previously known modifiers, data from previous work
[3] = biological target: T1, Recombinant human cathepsin K; parameters: key: qualitative values of 1 and 0 were used to signify inhibition and lack thereof, respectively; qualitative values of 1 and 0 were used to signify inhibition and lack thereof, respectively; a value of -1 was used to describe the concentration-dependent roles of glycosaminoglycans; conditions: activity modification matrix; previously known modifiers, data from previous work; cited from earlier work
[4] = biological target: T1, Recombinant human cathepsin K; conditions: cited from earlier work; for stability: ln(sf), sf = ratio of half-lives in the presence and absence of modifier: 37 °C and pH 7.4, data from previous work
[5] = biological target: T1, Recombinant human cathepsin K; test: Kinetic measurements, hydrolysis of the fluorogenic substrate Z-FR↓AMC (general modifier mechanism); assay type: biochemical; parameters: key to α (coefficient, effect of modifier on the affinity for the substrate) / β (coefficient, effect of modifier on the catalytic rate): dimensionless coefficients multiplying KS (α) and kcat (β); conditions: for Z-FRAMC: geometric mean of residual activities (vA): at 0.1×Km and 10×Km substrate, modifier 10×KA, calculated with Equation 1 from α and β of Table 3, unmodified enzyme = 1.00; for Kd: read-out: K A (equilibrium dissociation constant of the EA complex)
Protocol: All modifiers were tested for their effect on the hydrolysis of the low molecular mass synthetic substrate Z-FR↓AMC. Since all progress curves were linear from the beginning of the reaction, initial velocities were calculated from the slopes by linear regression. […] The basic mechanism considered for the analysis of the interactions was the general modifier mechanism shown in Figure 2, in which the effect of modifier is determined by the values of the coefficients α and β that multiply the kinetic parameters K S, K A (α) and k cat (β). In the thermodynamic box embodied in Figure 2, the reciprocal of the coefficient α represents the allosteric coupling constant that characterizes energy linkage between the modifier and the substrate, while a […] represents the effect exerted by the modifier on catalysis. The specific velocity plot was used for the primary screening of the kinetic behavior of the modifiers (Equation 2), as it allows an immediate judgment of the type of interaction and to gather preliminary estimates of the coefficients α and β, as well as of the dissociation constant of the modifier. Refinement was then performed by fitting the rate Equation 1 to data.
Figure 3 Kinetic mechanisms of the identified modifiers. All compounds were characterized by a combination of specific velocity plots (upper panels) and titration curves recorded at fixed substrate concentrations (lower panels). All experiments were performed at 25±1°C in 100 mM sodium acetate buffer pH 5.50 containing 1 mM EDTA and 2.5 mM DTT using the fluorogenic substrate Z-FR↓AMC and at a final enzyme concentration of 0.5 nM.
All kinetic measurements were performed in 100 mM sodium acetate buffer pH 5.50 containing 1 mM EDTA and 2.5 mM dithiothreitol (DTT) in single-use acrylic cuvettes (1×1 cm) thermostatted at 25±1°C with magnetic stirring. The hydrolysis of Z-FR↓AMC was followed fluorometrically at λex 383 nm and λem 455 nm. All tested modifiers were analyzed spectroscopically to determine their absorption properties under the conditions used in the assays. When necessary, appropriate corrections were made to the calculated reaction rates to take into account the inner filter effect.
The effects of the modifiers on enzymatic activity were analyzed with the general modifier mechanism which describes the interaction between enzyme (E), substrate (S) and modifier (A), as shown in Figure 2. Assuming that binding of A to E and ES is at quasi-equilibrium and that steady-state conditions are established in the fluxes around ES and ESA (i.e. the catalytic steps), the reaction rate for the mechanism in Figure 2 is defined by Equation 1: [drawing 2] (1) where v 0 is the reaction rate in the absence of modifier, K A is the equilibrium dissociation constant of the EA complex, α and β are dimensionless coefficients and σ = [S]/K m, approximated to [S]/K s. To determine the mechanism of interaction, plot the kinetic data and calculate preliminary values of the interaction parameters, the specific velocity plot was used. For this purpose, Equation 1 is rewritten as:
The plot of v 0/v A versus σ/(1+σ) produces straight lines with intersection points at v 0/v A = 1, regardless of the interaction mechanism. The parameters α, β and K A are determined by replotting the extrapolated values of the straight lines at σ/(1+σ) = 0 (a) and σ/(1+σ) = 1 (b) versus 1/[A] in the form: [drawing 4] (3) [drawing 5] (4)

[6] = biological target: T1, Recombinant human cathepsin K; test: Collagenolytic assays (calf skin collagen, SDS-PAGE); assay type: biochemical; parameters: key to collagen: qualitative value: qualitative values of 1 and 0 were used to signify inhibition and lack thereof, respectively; qualitative values of 1 and 0 were used to signify inhibition and lack thereof, respectively; a value of -1 was used to describe the concentration-dependent roles of glycosaminoglycans; conditions: for collagen: qualitative value: activity modification matrix
Protocol: The use of synthetic substrates is practical for the determination of the mechanisms of modification. […] Therefore, all modifiers were also tested with two macromolecular substrates, calf skin collagen and azocasein. The collagenolytic activity was tested quantitatively by following the fragmentation of the characteristic type I collagen pattern into smaller products on SDS-PAGE after incubation of the samples with cathepsin K in the presence and absence of modifiers.
Soluble calf skin collagen (Worthington Biochemical Corporation, USA) was diluted in 100 mM sodium acetate buffer pH 5.50 containing 1 mM EDTA and 5 mM DTT to a final concentration of 0.5 mg/ml. Experiments were started by addition of cathepsin K (final enzyme concentration 0.6 µM) to the reaction mixture containing collagen and increasing concentrations of modifier. All assays were performed at 28°C with shaking on an Eppendorf Thermomixer Comfort. Samples were incubated for 2 hours and the reactions then blocked by addition of E-64 to a final concentration of 1 µM. 10 µg of digested collagen were analyzed by SDS-PAGE on 8% polyacrylamide gels and protein bands visualized by Coomassie Brilliant Blue R-250 staining.

[7] = biological target: T1, Recombinant human cathepsin K; test: Thermal stability of cathepsin K at pH 7.4 in the presence of modifiers; assay type: biochemical; conditions: for stability: ln(sf), sf = ratio of half-lives in the presence and absence of modifier: 37 °C and pH 7.4
Protocol: Cathepsin K was incubated at 37°C in 50 mM Hepes buffer pH 7.40 containing 1 mM EDTA and 5 mM DTT in the presence or absence of each modifier. The final enzyme concentration was 0.2 µM and final compounds concentrations were 2 mM, except compound 2, which was used at a concentration of 1 mM. All experiments were performed in Eppendorf Protein LoBind Tubes to minimize the adsorption of proteins on tube walls. Aliquots were withdrawn from the reaction mixtures at regular time intervals and their residual activity measured using the substrate Z-FR↓AMC (5 µM final concentration). Inactivation curves had exponential profiles that were fitted with the mathematical model for one-phase exponential decay to determine the half-life of the enzyme in each reaction mixture.

[8] = substrate Z-FR↓AMC, pH 5.50, 25°C, 0.5 nM enzyme

Molecule	azocasein: fraction of residual enzyme activity [1]	Z-FRAMC: geometric mean of residual activities (vA) [2]	collagen: qualitative value [3]	stability: ln(sf), sf = ratio of half-lives in the presence and absence of modifier [4]	Effect on stability of cathepsin K at physiological plasma pH 7.4 [4]	Z-FRAMC: geometric mean of residual activities (vA) [5]	Kd [5, 8] [µM]	remaining activity [1] [%]	collagen: qualitative value [6]	stability: ln(sf), sf = ratio of half-lives in the presence and absence of modifier [7]	further results
chondroitin sulfate [reference compound]	0.90	2.40	-1	-0.24	–	–	–	–	–	–	Effect on azocasein degradation ([1]; lowest concentration, 10 µg/ml): ineffective
dermatan sulfate [reference compound]	0.32	3.18	-1	-0.15	–	–	–	–	–	–	–
clusterin: extracellular chaperone, stabilizer and liberator of cathepsin K	0.95	1.00	0	0.79	increase the stability	–	–	–	–	–	Effect on azocasein degradation ([1]; glycosaminoglycans at 10 µg/ml and 200 µg/ml, clusterin): marginal inhibitory effect; Effect on the hydrolysis of Z-FR↓AMC [2]: no effect on enzymatic activity; Effect on the hydrolysis of Z-FR↓AMC ([2]; listed as CLU): no modification
heparin	0.31	1.55	-1	1.69	increase the stability	–	–	–	–	–	–
Nc1cc(C(=O)O)ccc1NCC1CCCO1 (stereo not drawn) [Compound 1, 3-Amino-4-[(tetrahydro-2-furanylmethyl)amino] benzoic acid]	0.74	–	–	–	–	0.37	190 ± 20	74 ± 9	1	0.74	β (coefficient, effect of modifier on the catalytic rate) [5, 8]: 0.55±0.25; IC 50 relative to K A ([1]; azocasein IC50 versus K A with Z-FR↓AMC): about 4 fold; IC50 ([1]; azocasein degradation): 730 ± 190 µM; Effect on degradation of calf skin collagen ([6]; SDS-PAGE, increasing concentrations of modifier): concentration-dependent inhibitory effect; IC50 ([6]; degradation of calf skin collagen, read-out: IC 50 (estimated)): ~1000 µM; IC50 ([6]; substrate calf skin collagen 0.5 mg/ml, 0.6 µM cathepsin K, 2 hours 28°C, pH 5.50, estimated, read-out: IC 50): 1000 µM; Increase of stability (half-life) of cathepsin K ([7]; pH 7.4, 37°C, versus enzyme only): about 2 fold
O=C(Nc1ccc(C(=O)O)c(O)c1)c1ccccc1 [Compound 3, N-Benzoyl-p-aminosalicylic acid]	–	–	–	–	–	0.42	110 ± 20	86 ± 4	0	0.26	α (coefficient, effect of modifier on the affinity for the substrate) [5, 8]: 1.7±0.5; IC50 ([6]; substrate calf skin collagen 0.5 mg/ml, 0.6 µM cathepsin K, 2 hours 28°C, pH 5.50, estimated): n.i.
